Results published in patent US11730751B2, “Treating and preventing motor neuron diseases using nicotinamide riboside” (Elysium Health, Inc., priority 2017, dated 2023).

Tests used:
Format in all cases: in vivo
[1] = test system: transgenic SOD1 G93A mice; assay: Electrophysiological measurements (CMAP, gastrocnemius muscle after sciatic nerve stimulation) in SOD1 mice; settings: in words, FIG. 9
Experimental: Nicotinamide riboside, pterostilbene, and resveratrol were administered orally: 185 mg of nicotinamide riboside and/or 30 mg of pterostilbene or resveratrol per Kg per day were administered to the mice. Changes over time in evoked Compound Motor Action Potential (CMAP) in the gastrocnemius muscle after stimulation of the sciatic nerve were monitored at P50 (week 8) and […] (week 18). Recordings were made on a 2-channel electromyography system (Keypoint portable; Medtronic, Skovlunde, Denmark), with the high-frequency filter set at 5 kHz and the low-frequency filter set at 2 Hz. Electric stimulation produces artifacts; to reduce them, rectangular monophase electric pulses with a pulse width of 0.04 ms were used. For CMAP measurements the stimulation electrode was placed on the nerve at distance of 1 cm from the recording electrode placed on the gastrocnemius muscle through percutaneous puncture in the distal third of the paw, ipsilaterally to the surgical procedure, with a coaxial needle. The data of CMAP amplitude were expressed in millivolts, the data of latency were expressed in milliseconds and the data of nerve conduction velocity were expressed in meters per second (m/s). The number of animals tested per time point and group was of n=4.

[2] = test system: transgenic SOD1 G93A mice; assay: Motor behavior and performance tests in SOD1 mice (FIG. 3-9); settings: in words; for motor functions of SOD1 mice: FIG. 3-9, benefits only in the last weeks of the experiment
Text: (§1) 1. B6.Cg-Tg(SOD1*G93A)1Gur/J (https://www.jax.org/strain/004435)
(§2) Mice hemizygous for this SOD1-G93A (also called G93A-SOD1) transgene were viable and fertile, with transgenic expression of a G93A mutant form of human SOD1. This founder line (often referred to as G1H) was reported to have high transgene copy number. […] Motor neuron degeneration has been associated with function and/or degeneration of astrocytes, the major glial cell type of the nervous system. […] Female hemizygotes were poor breeders, and rarely produced more than one litter before the onset of disease. […] The pattern of gene expression in SOD1G93A activated microglia represented a unique ALS-specific signature. These SOD1-G93A (also called G93A-SOD1) transgenic mice were useful in studying neuromuscular disorders, including Amyotrophic Lateral Sclerosis.
(§3) Nicotinamide riboside, pterostilbene, and resveratrol were administered orally: 185 mg of nicotinamide riboside and/or 30 mg of pterostilbene or resveratrol per Kg per day were administered to the mice.
This score was based on the scale of Weydt et al. (Neuroreport 14: 1051-1054, 2003). […] When the animals reached a score of “4”, the access to food and water was facilitated by placing food pellets on the cage floor to all transgenic mice. Reaching a score of “5”, the animals were euthanized for ethical reasons. […] Changes over time in the different groups were monitored weekly from week 8 (P50) to week 20 (P140).
This score was based on the SHIRPA tail scale, procedure developed by Rogers et al. (Mamm. Genome 8: 711-713, 1997) in the MRC, United Kingdom. […] Changes over time in the different groups were monitored weekly.
Functions of the test included evaluating balance, grip strength and motor coordination of the subjects; especially in testing the effect of experimental drugs. For this test (Rota Rod, Harvard Apparatus, Holliston, Mass.), each animal was given three trials and the maximum period (seconds) that it could remain on a rotating axle (3.5 cm diameter; speed of rotation: 15 rpm) without falling was measured. Each mouse was given up to three attempts for an arbitrary limit of 1200 seconds and the longest period was recorded. Changes over time in the different groups were monitored weekly.
Motor function and deficit in rodent models of CNS disorders were evaluated. […] Each mouse was given up to three attempts for a maximum of 180 seconds and the longest period was recorded. Changes over time in the different groups were monitored weekly.
For this locomotor rating test, a flat rolling band (Treadmill, Harvard Apparatus) was used and set at an angle of 5°. […] Each mouse was given two trials and the maximum distance run and the number of electrical stimuli received during the test (not exceeding 3 seconds) were recorded. […]

[3] = test system: transgenic SOD1 G93A mice; assay: Survival time of SOD1 G93A mice (Kaplan-Meier); settings: in words, oral 185 mg NR and/or 30 mg PT or R per Kg per day, FIG. 1-2
Text: as §1, §2, §3

SMILES | motor action potential [1] | motor functions of SOD1 mice [2] | statistical comparison with the same group without R (SOD1 vs SOD1+R; SOD1+NR vs SOD1+NR+R) ([2]; Student's t-test) | survival of SOD1 mice [3]
NC(=O)c1ccc[n+]([C@@H]2O[C@H](CO)[C@@H](O)[C@H]2O)c1 [NR, nicotinamide riboside] | preserving motor action potential | improved motor functions | – | –
Oc1ccc(C=Cc2cc(O)cc(O)c2)cc1 [Resveratrol, resveratrol, reference compound] | – | showed no benefit | did not show significant differences | showed no benefit
COc1cc(/C=C/c2ccc(O)cc2)cc(OC)c1 [PT, pterostilbene] | – | but not PT alone improved motor functions | – | did not improve survival
